The record followed here is ChEMBL document CHEMBL1146698, “Phe*-Ala-based pentapeptide mimetics are BACE inhibitors: P2 and P3 SAR” (Bioorg Med Chem Lett, 2004).

The target of assay [1] is T1, Beta-secretase 2 (Homo sapiens, UniProt Q9Y5Z0).
T1 sequence (Q9Y5Z0 whole entry): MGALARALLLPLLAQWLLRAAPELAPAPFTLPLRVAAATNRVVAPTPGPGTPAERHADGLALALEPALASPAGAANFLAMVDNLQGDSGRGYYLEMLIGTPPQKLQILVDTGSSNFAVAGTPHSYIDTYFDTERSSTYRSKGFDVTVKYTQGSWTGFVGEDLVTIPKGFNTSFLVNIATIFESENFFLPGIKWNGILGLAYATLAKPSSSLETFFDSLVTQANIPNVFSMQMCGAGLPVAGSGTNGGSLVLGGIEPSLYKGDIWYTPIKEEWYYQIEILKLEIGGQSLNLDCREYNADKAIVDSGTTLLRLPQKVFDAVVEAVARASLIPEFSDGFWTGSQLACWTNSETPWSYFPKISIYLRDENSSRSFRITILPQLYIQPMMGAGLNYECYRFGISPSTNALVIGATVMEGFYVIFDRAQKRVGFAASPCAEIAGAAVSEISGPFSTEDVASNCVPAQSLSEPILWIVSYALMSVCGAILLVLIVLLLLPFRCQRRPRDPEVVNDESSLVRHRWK
The assay can be described thus: Selectivity tested against Beta-secretase 2 (BACE) in human.

Assay [2] has as its system HEK293. The assay is described as follows: In vitro inhibitory activity against beta-amyloid peptide (Abeta) in HEK293/APP751swe cells. Particulars: Homo sapiens. Type of assay: functional, cell-based.
Assay [3] addresses Beta-secretase 1 (Homo sapiens, UniProt P56817). The assay can be described thus: In vitro inhibition of Beta-secretase-1 in HEK293 (Human Embryonic Kidney) cell line. The assay is classed as cell-based.

Chain of Beta-secretase 1 (P56817 whole entry): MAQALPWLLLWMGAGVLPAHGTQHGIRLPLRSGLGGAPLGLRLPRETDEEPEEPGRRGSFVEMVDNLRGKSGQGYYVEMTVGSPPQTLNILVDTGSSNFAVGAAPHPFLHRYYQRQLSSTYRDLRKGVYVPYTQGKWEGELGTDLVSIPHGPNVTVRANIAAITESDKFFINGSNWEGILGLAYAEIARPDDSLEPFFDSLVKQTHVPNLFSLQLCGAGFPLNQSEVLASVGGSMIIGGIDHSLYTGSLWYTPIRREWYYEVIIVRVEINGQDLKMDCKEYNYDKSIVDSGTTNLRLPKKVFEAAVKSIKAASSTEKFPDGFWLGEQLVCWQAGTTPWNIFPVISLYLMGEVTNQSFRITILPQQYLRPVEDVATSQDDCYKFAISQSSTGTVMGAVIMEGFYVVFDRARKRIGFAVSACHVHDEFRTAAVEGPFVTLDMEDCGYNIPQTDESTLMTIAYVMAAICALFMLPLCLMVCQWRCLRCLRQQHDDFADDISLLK

Regarding `CSCC[C@H](NC(=O)[C@@H](NC(=O)OC(C)(C)C)C(C)C)C(=O)N[C@@H](CC(C)C)[C@@H](O)C[C@@H](C)C(=O)N[C@H](C(=O)NCc1ccccc1)C(C)C`, the midpoint of inhibition in assay [1], the IC50, lay at 500 nM.

Take `CSCC[C@H](NC(=O)[C@@H](NC(=O)OC(C)(C)C)C(C)C)C(=O)N[C@@H](Cc1ccccc1)[C@@H](O)C[C@@H](C)C(=O)N[C@H](C(=O)NCc1ccccc1)C(C)C`: the IC50 turned out to be 22000 nM in assay [2] and 28 nM in assay [3]. On the same counts, the results for `CC[C@@H](C)[C@H](NC(=O)OC(C)(C)C)C(=O)N[C@@H](C)C(=O)N[C@@H](Cc1ccccc1)[C@@H](O)CC(C)C(=O)NC(C(=O)NCc1ccncc1)C(C)C` (single isomer, unassigned) are 410 nM and 42 nM. Take `CC(C[C@H](O)[C@H](Cc1ccccc1)NC(=O)C(C)NC(=O)[C@@H](NC(=O)OC(C)(C)C)C(C)C)C(=O)NC(C(=O)NCc1ccncc1)C(C)C` (single isomer, unassigned): the IC50 in assay [2] was 48000 nM; in assay [3], 1060 nM. The like results for `CC(C[C@H](O)[C@H](Cc1ccccc1)NC(=O)[C@H](C)NC(=O)[C@H](CCCC(F)(F)F)NC(=O)OC(C)(C)C)C(=O)NC(C(=O)NCc1ccncc1)C(C)C` (single isomer, unassigned) were, in that order, 13400 nM and 419 nM. On the same counts, the results for `CC(C)C[C@H](NC(=O)OC(C)(C)C)C(=O)N[C@@H](C)C(=O)N[C@@H](Cc1ccccc1)[C@@H](O)CC(C)C(=O)NC(C(=O)NCc1ccncc1)C(C)C` (single isomer, unassigned) are 860 nM and 63 nM. On the same counts, the results for `CSCC[C@H](NC(=O)[C@@H](NC(=O)OC(C)(C)C)C(C)C)C(=O)N[C@@H](Cc1ccccc1)[C@@H](O)CC(C)C(=O)NC(C(=O)NCc1ccncc1)C(C)C` (single isomer, unassigned) are 1700 nM and 70 nM. `COCC[C@H](NC(=O)[C@@H](NC(=O)OC(C)(C)C)C(C)C)C(=O)N[C@@H](Cc1ccccc1)[C@@H](O)CC(C)C(=O)NC(C(=O)NCc1ccncc1)C(C)C` (single isomer, unassigned): the IC50 in assay [2] is 2900 nM; in assay [3] it was 127 nM. On to `CC[C@H](NC(=O)OC(C)(C)C)C(=O)N[C@@H](C)C(=O)N[C@@H](Cc1ccccc1)[C@@H](O)CC(C)C(=O)NC(C(=O)NCc1ccncc1)C(C)C` (single isomer, unassigned), for which the results for the IC50 in assay [2] and in assay [3] were 2800 nM and 75 nM, respectively. Consider `CCC[C@H](NC(=O)OC(C)(C)C)C(=O)N[C@@H](C)C(=O)N[C@@H](Cc1ccccc1)[C@@H](O)CC(C)C(=O)NC(C(=O)NCc1ccncc1)C(C)C` (single isomer, unassigned), for which the IC50 stood at 1400 nM in assay [2] and 41 nM in assay [3]. The like results for `CCC[C@H](NC(=O)OC(C)(C)C)C(=O)N[C@@H](CCSC)C(=O)N[C@@H](Cc1ccccc1)[C@@H](O)CC(C)C(=O)NC(C(=O)NCc1ccncc1)C(C)C` (single isomer, unassigned) were, in that order, 990 nM and 60 nM.

Regarding `CC(C[C@H](O)[C@H](Cc1ccccc1)NC(=O)[C@H](C)NC(=O)[C@H](CN(C)C)NC(=O)OC(C)(C)C)C(=O)NC(C(=O)NCc1ccncc1)C(C)C` (single isomer, unassigned), half-maximal inhibition in assay [3] (IC50) required 2530 nM. Consider `CC(C[C@H](O)[C@H](Cc1ccccc1)NC(=O)[C@H](C)NC(=O)[C@H](CC(F)F)NC(=O)OC(C)(C)C)C(=O)NC(C(=O)NCc1ccncc1)C(C)C` (single isomer, unassigned), for which the IC50 in assay [2] stood at 400 nM; in assay [3], 45 nM.

`CC(C[C@H](O)[C@H](Cc1ccccc1)NC(=O)[C@H](C)NC(=O)[C@H](CCN(C)C)NC(=O)OC(C)(C)C)C(=O)NC(C(=O)NCc1ccncc1)C(C)C` (single isomer, unassigned) yielded an IC50 in assay [3] of 89000 nM. Turning to `CC(C[C@H](O)[C@H](Cc1ccccc1)NC(=O)[C@H](C)NC(=O)[C@@H](NC(=O)OC(C)(C)C)C(C)C)C(=O)NC(C(=O)NCc1ccncc1)C(C)C` (single isomer, unassigned), the concentration for half-maximal inhibition (IC50) worked out at 2100 nM in assay [2] and 82 nM in assay [3]. With `COCC[C@H](NC(=O)OC(C)(C)C)C(=O)N[C@@H](C)C(=O)N[C@@H](Cc1ccccc1)[C@@H](O)CC(C)C(=O)NC(C(=O)NCc1ccncc1)C(C)C` (single isomer, unassigned), in assay [3], the IC50 was determined as 705 nM. In the case of `COC[C@H](NC(=O)OC(C)(C)C)C(=O)N[C@@H](C)C(=O)N[C@@H](Cc1ccccc1)[C@@H](O)CC(C)C(=O)NC(C(=O)NCc1ccncc1)C(C)C` (single isomer, unassigned), the figures for the IC50 in assay [2] and in assay [3] were 4990 nM and 118 nM, respectively. On the same counts, the results for `CC(C[C@H](O)[C@H](Cc1ccccc1)NC(=O)[C@H](C)NC(=O)[C@H](CC(F)(F)C(F)F)NC(=O)OC(C)(C)C)C(=O)NC(C(=O)NCc1ccncc1)C(C)C` (single isomer, unassigned) are 1620 nM and 281 nM.
